Values quoted from earlier work as cited in patent EP2893919B1, “Formulation of aprepitant with enhanced solubility” (SANOFI, priority 2014, dated 2015).

What was measured:
[1] = pH range 2 to 10

## C[C@@H](O[C@H]1OCCN(Cc2n[nH]c(=O)[nH]2)[C@H]1c1ccc(F)cc1)c1cc(C(F)(F)F)cc(C(F)(F)F)c1 [Aprepitant, 5-([(2R,3S)-2-((R)-1-[3,5-bis(trifluoromethyl)phenyl]ethoxy)-3-(4-fluorophenyl)morpholino]methyl)-1H-1,2,4-triazol-3(2H)-one]
[1]
  solubility in water: < 10 µg/mL
Caco-2
  Caco-2 permeability: 7.85 ×10⁻⁶ cm/s
